According to ChEMBL document CHEMBL6083211, “Pyrazolines inhibiting the activity of the early growth response-1 DNA-binding domain” (Bioorg Med Chem Lett, 2024):
The source made the active and inactive calls.

Columns and labels:
Type in all cases: cell-based
[1] = target: Early growth response protein 1 (Homo sapiens) (UniProt P18146); test: Inhibition of EGR-1 DNA binding activity in TNF-alpha-stimulated human HaCaT cells assessed as suppression of DNA-protein complex formation treated for 1 hr by EMSA; conditions: dose 20-40 µM
[2] = target: Early growth response protein 1 (Homo sapiens) (UniProt P18146); test: Inhibition of EGR-1 in TNF-alpha-stimulated human HaCaT cells assessed as decrease in TSLP level at 20 to 40 uM pretreated for 30 mins followed by TNF-alpha stimulation measured after 6 hrs by RT-PCR analysis; conditions: dose 20-40 µM, time 390.0 min
[3] = target: Early growth response protein 1 (Homo sapiens) (UniProt P18146); test: Inhibition of EGR-1 in TNF-alpha-stimulated human HaCaT cells assessed as decrease in IL-1beta level at 20 to 40 uM pretreated for 30 mins followed by TNF-alpha stimulation measured after 6 hrs by RT-PCR analysis; conditions: dose 20-40 µM, time 390.0 min
[4] = target: Early growth response protein 1 (Homo sapiens) (UniProt P18146); test: Inhibition of EGR-1 in TNF-alpha-stimulated human HaCaT cells assessed as decrease in IL-6 level at 20 to 40 uM pretreated for 30 mins followed by TNF-alpha stimulation measured after 6 hrs by RT-PCR analysis; conditions: dose 20-40 µM, time 390.0 min
[5] = target: Early growth response protein 1 (Homo sapiens) (UniProt P18146); test: Inhibition of EGR-1 in TNF-alpha-stimulated human HaCaT cells assessed as decrease in IL-31 level at 20 to 40 uM pretreated for 30 mins followed by TNF-alpha stimulation measured after 6 hrs by RT-PCR analysis; conditions: dose 20-40 µM, time 390.0 min

Measured: inhibition

Early growth response protein 1 (Homo sapiens), sequence (P18146 whole entry, looked up): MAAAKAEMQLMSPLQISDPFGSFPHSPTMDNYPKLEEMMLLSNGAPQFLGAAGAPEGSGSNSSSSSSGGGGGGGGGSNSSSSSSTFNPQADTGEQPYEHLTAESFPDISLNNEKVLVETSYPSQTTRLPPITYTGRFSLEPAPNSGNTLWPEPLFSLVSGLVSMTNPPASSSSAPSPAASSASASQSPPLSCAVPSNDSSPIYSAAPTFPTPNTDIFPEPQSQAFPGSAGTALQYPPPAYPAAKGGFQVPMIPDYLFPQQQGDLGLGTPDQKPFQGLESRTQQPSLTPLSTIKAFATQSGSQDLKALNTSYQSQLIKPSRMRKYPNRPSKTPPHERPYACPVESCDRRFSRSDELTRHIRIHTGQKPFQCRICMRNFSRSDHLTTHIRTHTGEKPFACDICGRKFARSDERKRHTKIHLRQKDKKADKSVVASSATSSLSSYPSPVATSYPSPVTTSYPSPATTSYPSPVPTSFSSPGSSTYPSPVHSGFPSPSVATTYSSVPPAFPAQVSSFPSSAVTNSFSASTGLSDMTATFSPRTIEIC

COc1ccc(C2CC(c3c(O)ccc4ccccc34)=NN2)cc1 (stereo not given)
active: [1] Dose-dependent-effect | [2] | [3] | [4] | [5]
